Results from PMC9161259 (ACS Omega, 2022).
One block for each compound: values may come before it.

Experiments:
L858R/T790M mutant EGFR = L858R/T790M mutant EGFR (Homo sapiens, UniProt P00533, L858R/T790M); assay: ADP-Glo kinase assay, L858R/T790M mutant EGFR; type: biochemical
[1] = tested on: A549 lung carcinoma cell line; assay: Cytotoxic assay; conditions: Homo sapiens, A549, 48 h, read-out: Cytotoxic activity IC50, A549
[2] = tested on: MOLT-3 lymphoblastic leukemia cell line; assay: Cytotoxic assay; conditions: for IC50: Homo sapiens, MOLT-3, 48 h, read-out: Cytotoxic activity IC50, MOLT-3
Cytotoxic assay = conditions: human, MRC-5 normal embryonic lung cell line
[3] = tested on: HuCCA-1 cholangiocarcinoma cancer cell line; assay: Cytotoxic assay; conditions: Homo sapiens, HuCC-A1, 48 h, read-out: Cytotoxic activity IC50, HuCCA-1
[4] = tested on: MDA-MB-231 hormone-independent breast cancer cell line; assay: Cytotoxic assay; conditions: Homo sapiens, MDA-MB-231, 48 h, read-out: Cytotoxic activity IC50, MDA-MB-231
wild-type EGFR = wild-type EGFR (Homo sapiens, UniProt P00533); assay: ADP-Glo kinase assay, wild-type EGFR; type: biochemical
Chain of wild-type EGFR (P00533 25-1210): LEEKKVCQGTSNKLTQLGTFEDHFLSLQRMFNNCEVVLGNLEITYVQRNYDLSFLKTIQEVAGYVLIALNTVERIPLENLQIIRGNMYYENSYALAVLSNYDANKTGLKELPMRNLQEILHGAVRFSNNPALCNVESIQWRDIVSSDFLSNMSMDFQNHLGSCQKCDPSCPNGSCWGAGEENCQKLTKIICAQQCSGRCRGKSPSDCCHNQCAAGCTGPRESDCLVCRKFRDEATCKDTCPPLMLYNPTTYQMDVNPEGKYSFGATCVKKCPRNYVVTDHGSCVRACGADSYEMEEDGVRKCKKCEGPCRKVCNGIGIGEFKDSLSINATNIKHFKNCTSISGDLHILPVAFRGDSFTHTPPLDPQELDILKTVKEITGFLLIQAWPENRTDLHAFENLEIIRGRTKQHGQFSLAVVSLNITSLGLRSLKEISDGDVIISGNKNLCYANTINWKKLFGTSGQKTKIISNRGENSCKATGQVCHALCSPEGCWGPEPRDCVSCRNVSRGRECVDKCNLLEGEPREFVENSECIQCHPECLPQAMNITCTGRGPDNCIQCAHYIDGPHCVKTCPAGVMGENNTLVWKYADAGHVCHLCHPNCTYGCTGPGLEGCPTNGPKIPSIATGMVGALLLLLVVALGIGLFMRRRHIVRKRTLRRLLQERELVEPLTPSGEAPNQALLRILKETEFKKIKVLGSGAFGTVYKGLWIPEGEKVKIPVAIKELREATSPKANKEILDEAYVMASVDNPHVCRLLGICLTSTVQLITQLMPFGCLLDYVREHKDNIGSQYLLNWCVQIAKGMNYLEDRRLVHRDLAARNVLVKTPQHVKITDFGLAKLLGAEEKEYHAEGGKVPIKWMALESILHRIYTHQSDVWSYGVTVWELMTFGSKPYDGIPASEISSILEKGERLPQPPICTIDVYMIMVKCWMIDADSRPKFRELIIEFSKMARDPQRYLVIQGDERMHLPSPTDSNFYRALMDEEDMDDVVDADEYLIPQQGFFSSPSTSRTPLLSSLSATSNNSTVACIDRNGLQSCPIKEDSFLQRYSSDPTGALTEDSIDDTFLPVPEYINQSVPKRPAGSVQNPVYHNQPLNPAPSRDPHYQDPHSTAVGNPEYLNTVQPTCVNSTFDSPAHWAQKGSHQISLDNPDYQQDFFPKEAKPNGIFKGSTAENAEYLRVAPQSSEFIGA

[5] = tested on: HepG2 hepatocellular carcinoma cell line; assay: Cytotoxic assay; conditions: for IC50: Homo sapiens, HepG2, 48 h, read-out: Cytotoxic activity IC50, HepG2
[6] = tested on: T47D hormone-dependent breast cancer cell line; assay: Cytotoxic assay; conditions: Homo sapiens, 48 h, read-out: Cytotoxic activity IC50, T47D

Chain of L858R/T790M mutant EGFR (P00533 25-1210 T790M/L858R): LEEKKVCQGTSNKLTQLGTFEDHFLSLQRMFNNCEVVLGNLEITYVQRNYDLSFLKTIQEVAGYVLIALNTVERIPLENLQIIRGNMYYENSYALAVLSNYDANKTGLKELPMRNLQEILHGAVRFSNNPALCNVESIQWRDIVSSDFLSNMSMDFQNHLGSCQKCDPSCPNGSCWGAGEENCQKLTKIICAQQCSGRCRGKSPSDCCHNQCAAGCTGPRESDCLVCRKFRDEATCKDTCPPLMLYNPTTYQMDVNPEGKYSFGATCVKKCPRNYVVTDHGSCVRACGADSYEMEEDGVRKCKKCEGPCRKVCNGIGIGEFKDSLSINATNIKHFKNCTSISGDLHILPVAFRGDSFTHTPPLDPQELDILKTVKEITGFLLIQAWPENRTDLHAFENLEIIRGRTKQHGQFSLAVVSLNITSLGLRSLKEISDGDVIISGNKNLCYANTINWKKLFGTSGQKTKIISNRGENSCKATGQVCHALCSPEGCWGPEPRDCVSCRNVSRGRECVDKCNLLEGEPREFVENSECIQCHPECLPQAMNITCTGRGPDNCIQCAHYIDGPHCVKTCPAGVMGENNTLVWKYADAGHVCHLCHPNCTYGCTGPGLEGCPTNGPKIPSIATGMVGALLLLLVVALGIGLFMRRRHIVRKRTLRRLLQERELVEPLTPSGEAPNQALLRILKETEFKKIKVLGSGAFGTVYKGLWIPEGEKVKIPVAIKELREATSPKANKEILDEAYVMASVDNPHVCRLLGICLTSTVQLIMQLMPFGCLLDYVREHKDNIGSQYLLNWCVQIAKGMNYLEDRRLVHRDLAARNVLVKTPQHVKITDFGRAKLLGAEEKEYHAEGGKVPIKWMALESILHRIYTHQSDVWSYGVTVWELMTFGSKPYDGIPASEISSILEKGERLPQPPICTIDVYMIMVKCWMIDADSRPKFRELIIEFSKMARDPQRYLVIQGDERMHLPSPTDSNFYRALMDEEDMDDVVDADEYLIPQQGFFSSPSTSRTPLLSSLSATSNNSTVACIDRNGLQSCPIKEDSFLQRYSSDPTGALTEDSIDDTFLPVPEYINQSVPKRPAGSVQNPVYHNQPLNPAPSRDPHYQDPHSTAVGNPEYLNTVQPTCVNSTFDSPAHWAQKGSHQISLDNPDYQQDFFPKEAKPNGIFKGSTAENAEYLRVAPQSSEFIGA

- IC50 (L858R/T790M mutant EGFR): > 0.1 µM
- IC50 (wild-type EGFR): 0.00396 ± 0.00066 µM
- EGFR inhibitory activity, times higher than that of erlotinib (wild-type EGFR; ratio of IC50 values, wild-type EGFR): 4 fold
Structure (SMILES): Cc1ccc(NC2=C(Cl)C(=O)c3ccccc3C2=O)cc1 [compound 3, 2-Chloro-3-(p-tolylamino)naphthalene-1,4-dione]
- IC50 [1]: > 50 µg/mL
- IC50 [2]: 4.3 ± 0.46 µM
- IC50 at 48 h (Cytotoxic assay): 92.43 ± 0.02 µM
- IC50 [3]: 42.2 ± 1.96 µM
- IC50 [4]: 10.7 ± 1.89 µM
- IC50 [5]: 127.4 ± 0.65 µM
- IC50 [6]: 39.5 ± 0.3 µM

Structure (SMILES): O=C1C(Cl)=C(Nc2ccc(F)cc2)C(=O)c2ccccc21 [compound 4, 2-Chloro-3-((4-fluorophenyl)amino)naphthalene-1,4-dione]
- IC50 [1]: 148 ± 2.55 µM
- IC50 [2]: 7.45 ± 1.06 µM
- IC50 at 48 h (Cytotoxic assay): 20.2 ± 1.4 µM
- IC50 [3]: 58.7 ± 0.64 µM
- IC50 [4]: 17 ± 0.2 µM
- IC50 [5]: 131.9 ± 1.13 µM
- IC50 [6]: 17.9 ± 0.76 µM

Structure (SMILES): O=C1C(Cl)=C(Nc2ccc(Br)cc2)C(=O)c2ccccc21 [compound 5, 2-((4-Bromophenyl)amino)-3-chloronaphthalene-1,4-dione]
- IC50 [1]: > 50 µg/mL
- Cytotoxic activity IC50, MOLT-3 [2]: inactive
- IC50 [2]: > 50 µg/mL
- IC50 at 48 h (Cytotoxic assay): > 50 µg/mL
- IC50 [3]: > 50 µg/mL
- IC50 [4]: > 50 µg/mL
- Cytotoxic activity IC50, HepG2 [5]: inactive
- IC50 [5]: > 50 µg/mL
- IC50 [6]: > 50 µg/mL

Structure (SMILES): O=C1C(Cl)=C(Nc2ccc(I)cc2)C(=O)c2ccccc21 [compound 6, 2-Chloro-3-((4-iodophenyl)amino)naphthalene-1,4-dione]
- IC50 [1]: > 50 µg/mL
- IC50 [2]: 42.6 ± 8.11 µM
- IC50 at 48 h (Cytotoxic assay): > 50 µg/mL
- IC50 [3]: > 50 µg/mL
- IC50 [4]: > 50 µg/mL
- IC50 [5]: > 50 µg/mL
- IC50 [6]: 52.5 ± 0.85 µM

Structure (SMILES): O=C1C(Cl)=C(Nc2ccc(C(F)(F)F)cc2)C(=O)c2ccccc21 [compound 7, 2-Chloro-3-((4-(trifluoromethyl)phenyl)amino)naphthalene-1,4-dione]
- IC50 [1]: > 50 µg/mL
- IC50 [2]: 7.68 ± 0.84 µM
- IC50 at 48 h (Cytotoxic assay): > 50 µg/mL
- IC50 [3]: > 50 µg/mL
- IC50 [4]: 70.8 ± 2.19 µM
- IC50 [5]: > 50 µg/mL
- IC50 [6]: 63.4 ± 2.12 µM

- IC50 (L858R/T790M mutant EGFR): > 0.1 µM
- IC50 (wild-type EGFR): 0.0114 ± 0.00035 µM
Structure (SMILES): O=C1C(Cl)=C(Nc2ccc([N+](=O)[O-])cc2)C(=O)c2ccccc21 [compound 8, 2-Chloro-3-((4-nitrophenyl)amino)naphthalene-1,4-dione]
- IC50 [1]: 70 ± 2.04 µM
- IC50 [2]: 1.98 ± 0.28 µM
- IC50 at 48 h (Cytotoxic assay): 74.9 ± 7.21 µM
- IC50 [3]: 16.3 ± 0.98 µM
- IC50 [4]: 11.1 ± 2.84 µM
- IC50 [5]: 86.1 ± 1.61 µM
- IC50 [6]: 11.7 ± 0.19 µM

Structure (SMILES): N#Cc1ccc(NC2=C(Cl)C(=O)c3ccccc3C2=O)cc1 [compound 9, 4-((3-Chloro-1,4-dioxo-1,4-dihydronaphthalen-2-yl)amino)benzonitrile]
- IC50 [1]: 72.72 ± 0.21 µM
- IC50 [2]: 1.75 ± 0.2 µM
- IC50 at 48 h (Cytotoxic assay): 18.4 ± 1.65 µM
- IC50 [3]: 22.67 ± 0.09 µM
- IC50 [4]: 43.08 ± 0.19 µM
- IC50 [5]: 73.4 ± 2.26 µM
- IC50 [6]: 11.27 ± 0.06 µM

- IC50 (L858R/T790M mutant EGFR): > 0.1 µM
- IC50 (wild-type EGFR): 0.0186 ± 0.00141 µM
Structure (SMILES): O=C1C(Cl)=C(Nc2cccc([N+](=O)[O-])c2)C(=O)c2ccccc21 [compound 10, 2-Chloro-3-((3-nitrophenyl)amino)naphthalene-1,4-dione]
- IC50 [1]: 114.1 ± 0.71 µM
- IC50 [2]: 2.98 ± 0.25 µM
- IC50 at 48 h (Cytotoxic assay): 74.53 ± 0.71 µM
- IC50 [3]: 42.1 ± 0.74 µM
- IC50 [4]: 16.2 ± 0.57 µM
- IC50 [5]: > 50 µg/mL
- IC50 [6]: 19.2 ± 1.77 µM

Structure (SMILES): COc1ccc(NC2=C(Cl)C(=O)c3ccccc3C2=O)cc1 [compound 11, 2-Chloro-3-((4-methoxyphenyl)amino)naphthalene-1,4-dione]
- IC50 [1]: > 50 µg/mL
- IC50 [2]: 17.6 ± 3.3 µM
- IC50 at 48 h (Cytotoxic assay): > 50 µg/mL
- IC50 [3]: > 50 µg/mL
- IC50 [4]: 105 ± 2.72 µM
- IC50 [5]: > 50 µg/mL
- IC50 [6]: > 50 µg/mL

Structure (SMILES): O=C1C(Cl)=C(Nc2ccc(O)cc2)C(=O)c2ccccc21 [compound 12, 2-Chloro-3-((4-hydroxyphenyl)amino)naphthalene-1,4-dione]
- IC50 [1]: 30.73 ± 0.18 µM
- IC50 [2]: 4.67 ± 0.24 µM
- IC50 at 48 h (Cytotoxic assay): 11.4 ± 3.28 µM
- IC50 [3]: 8.21 ± 0.33 µM
- IC50 [4]: 4.77 ± 0.07 µM
- IC50 [5]: 22.6 ± 0.87 µM
- IC50 [6]: 14.7 ± 0.43 µM

Structure (SMILES): O=C1C(Br)=C(Nc2ccccc2)C(=O)c2ccccc21 [compound 13, 2-Bromo-3-(phenylamino)naphthalene-1,4-dione]
- IC50 [1]: 27.91 ± 0.05 µM
- IC50 [2]: 2.74 ± 0.02 µM
- IC50 at 48 h (Cytotoxic assay): 15.3 ± 2.67 µM
- IC50 [3]: 15.6 ± 0.54 µM
- IC50 [4]: 9.48 ± 2.17 µM
- IC50 [5]: 20.1 ± 0.54 µM
- IC50 [6]: 10.1 ± 0.27 µM

Structure (SMILES): O=C1C(Br)=C(Nc2ccc(F)cc2)C(=O)c2ccccc21 [compound 14, 2-Bromo-3-((4-fluorophenyl)amino)naphthalene-1,4-dione]
- IC50 [1]: 50 ± 3 µM
- IC50 [2]: 4.65 ± 0.41 µM
- IC50 at 48 h (Cytotoxic assay): 12.5 ± 0.74 µM
- IC50 [3]: 16.2 ± 1.65 µM
- IC50 [4]: 7.54 ± 2.07 µM
- IC50 [5]: 19.1 ± 0.82 µM
- IC50 [6]: 28.5 ± 1 µM

Structure (SMILES): O=C1C(Br)=C(Nc2ccc(Br)cc2)C(=O)c2ccccc21 [compound 15, 2-Bromo-3-((4-bromophenyl)amino)naphthalene-1,4-dione]
- IC50 [1]: > 50 µg/mL
- IC50 [2]: 7.17 ± 1.12 µM
- IC50 at 48 h (Cytotoxic assay): > 50 µg/mL
- IC50 [3]: 70.2 ± 1.12 µM
- IC50 [4]: 65.5 ± 3.01 µM
- IC50 [5]: 4.94 ± 0.02 µM
- IC50 [6]: > 50 µg/mL

Structure (SMILES): O=C1C=C(Nc2ccccc2)C(=O)c2ccccc21 [compound 16, 2-(Phenylamino)naphthalene-1,4-dione]
- IC50 [1]: 40.8 ± 1.51 µM
- IC50 [2]: > 50 µg/mL
- IC50 at 48 h (Cytotoxic assay): > 50 µg/mL
- IC50 [3]: 96.2 ± 2.84 µM
- IC50 [4]: 30.4 ± 0.86 µM
- IC50 [5]: 25.1 ± 3.31 µM
- IC50 [6]: > 50 µg/mL

Structure (SMILES): O=C1C=C(Nc2ccc(F)cc2)C(=O)c2ccccc21 [compound 17, 2-((4-Fluorophenyl)amino)naphthalene-1,4-dione]
- IC50 [1]: > 50 µg/mL
- IC50 [2]: > 50 µg/mL
- IC50 at 48 h (Cytotoxic assay): 21.6 ± 2.45 µM
- IC50 [3]: 9.65 ± 1.99 µM
- IC50 [4]: 21.8 ± 2.95 µM
- IC50 [5]: 23.4 ± 3.45 µM
- IC50 [6]: 88.7 ± 1.64 µM

Structure (SMILES): COc1ccc(NC2=CC(=O)c3ccccc3C2=O)cc1 [compound 18, 2-((4-Methoxyphenyl)amino)naphthalene-1,4-dione]
- IC50 [1]: > 50 µg/mL
- IC50 [2]: > 50 µg/mL
- IC50 at 48 h (Cytotoxic assay): > 50 µg/mL
- IC50 [3]: > 50 µg/mL
- IC50 [4]: > 50 µg/mL
- IC50 [5]: > 50 µg/mL
- IC50 [6]: > 50 µg/mL

Structure (SMILES): COc1cccc2c1C(=O)c1c(O)c3c(c(O)c1C2=O)C[C@@](O)(C(=O)CO)C[C@@H]3O[C@H]1C[C@H](N)[C@H](O)[C@H](C)O1 [doxorubicin, reference compound]
- IC50 [1]: 0.34 ± 0.01 µM
- IC50 [2]: 0.02 µM
- IC50 at 48 h (Cytotoxic assay): 2.67 ± 0.2 µM
- IC50 [3]: 1.17 ± 0.05 µM
- IC50 [4]: 2.1 ± 0.06 µM
- IC50 [5]: 0.5 ± 0.04 µM
- IC50 [6]: 1.04 ± 0.01 µM

Structure (SMILES): COc1cc([C@@H]2c3cc4c(cc3[C@@H](O[C@@H]3O[C@@H]5CO[C@@H](C)O[C@H]5[C@H](O)[C@H]3O)[C@H]3COC(=O)[C@H]23)OCO4)cc(OC)c1O [etoposide, reference compound]
- IC50 [2]: 0.05 µM
- IC50 [5]: 50 ± 3.7 µM
